The subject of one data set is PGE2 production. Description: PGE2 ELISA in A549 cells stimulated with arachidonic acid. The format is cell-based. The conditions noted are these: Table 1B; for activity at 10 µg/mL / activity at 100 µg/mL: Homo sapiens, A549, read-out: PGE-2 % of control; for activity at 10 µg/mL / activity at 100 µg/mL / PGE-2 % of control: control 42 ± 3 pg ml^−1; for PGE-2: control 42 ± 3, mean ± S.D., n=3.

For a further data set, the system named is LTB4 formation. Description: Leukotriene B4 ELISA in A549 cells. The conditions noted are these: for activity at 10 µg/mL / activity at 100 µg/mL: Homo sapiens, A549; for activity at 10 µg/mL / activity at 100 µg/mL / LTB4 / LTB4 % of control: Table 2B; for activity at 10 µg/mL / activity at 100 µg/mL / LTB4 % of control: control 100 ± 1 pg ml^−1; for LTB4: control 100 ± 1, mean ± S.D., n=3; for inhibition of LTB4 formation: at 10 μg ml^−1 or 100 μg ml^−1. It counts as cell-based. The method, then: The A549 cell line was grown in Dulbecco's Modified Eagle Medium (DMEM) also supplemented with 10% heat inactivated fetal bovine serum and penicillin-streptomycin. […] The media was changed twice a week.
PGE2 was measured by enzyme enzyme-linked immunosorbent assay (ELISA) (Cayman Chemical, Ann Arbor, Mich.). (1) or (2) was dissolved in DMSO at a concentration of 10 mg ml^−1 for the in vitro experiments. A549 cells in 24 well plates were treated with the compound for 30 min., then arachidonic acid (20 μg ml^−1) was added at 37° C. for 5 min. The samples were frozen at −80° C. until assayed for PGE2. A 100 μl sample was added to EIA buffer (900 μl). Diluted sample (25 μl) was then added to a 96 well plate. The samples were incubated overnight at 4° C. The plate was then washed 5 times ([…]) and […] was added. The absorbance at 450 nm was determined in an ELISA reader. Tables 1A-1B show the mean value±S.D. of 3 determinations. Percents were obtained using the formula: %: sample pg/ml/control pg/ml×100.
Several recent modified NSAIDs target both prostaglandin as well as leukotriene (Martel-Pelletier et al., Ann. Rheum. Dis., 62:501-09 (2003)). Since nitroxides inhibit lipoxygenase (Rachmilewitz et al., Gut, 35: 1181-88 (1994)), the inhibition of LTB4 in A549 cells by these compounds was evaluated. Leukotriene B4 from A549 cells treated as described above was examined using an ELISA assay kit (Cayman Chemical, Ann Arbor, Mich.; Cat No. 520111) according to the manufacturer's instructions. Tables 2A-2B show the mean value±S.D. of 3 determinations. Percents were obtained using the formula: %: sample pg/ml/control pg/ml×100.

Data set [1] can be described thus: Maximum tolerated dose, IP injection. It counts as in vivo. The conditions noted are these: nude mice, monitored up to 24 h, death as end point; for MTD at 24 h: female, athymic nude, mouse, in vivo. As for the experimental part: All animal experiments were carried out in compliance with the Guide for the Care and Use of Laboratory Animal Resources (National Research Council, 1996) and were approved by the National Cancer Institute Animal Care and Use Committee. Female athymic nude mice were supplied at 6 weeks of age by the Frederick Cancer Research Center and were housed five per cage in a climate-controlled environment. […] Each animal was weighed individually on the same day as the intraperitoneal (IP) injection. Different dosages were used to determine the maximum tolerated dose to be given to the animals. Each animal was monitored for up to 24 h and death was the end point of the experiment.

Data set [2] can be described thus: Carrageenan-induced foot paw edema model. It counts as in vivo. As to conditions: dose decreasing the inflammatory response by 50%, n = 4. The method, then:
The in vivo anti-inflammatory activity was evaluated using the carrageenan-induced foot paw edema model reported previously (Winter et al. Proc. Soc. Exp. Biol. Med., 111: 544-47 (1962)).
(In general: The carrageenan paw model is a standard test of acute inflammation.)

The nature of data set [3]: Cyclic voltammetry (oxidation potential). It counts as physicochemical. The method, then: Nitroxides undergo one electron reduction and oxidation, which provides their antioxidant characteristics. Cyclic Voltammetry (CV) measurements of the nitroxide-NSAIDs were taken with an EG Potensiostat/Galvanostat Model 273A, from AMETEK Princeton Applied Research (Oak Ridge, Tenn.). Measurements were performed at room temperature in PBS or 50% organic solvents, using the platinum auxiliary electrode and Ag/AgCl (saturated KCl) reference electrode.

Data set [4] in a line: Superoxide scavenging: ferricytochrome c reduction, hypoxanthine/xanthine oxidase. It counts as biochemical. As to conditions: PBS pH 7.4, 25° C., cyt c 60 μM; read-out: IC50, reduction rate of ferricytochrome c (superoxide scavenging).
Experimental: Superoxide was generated from the reaction of hypoxanthine (500 μM) with xanthine oxidase (10 mU) in PBS (pH 7.4, 25° C.) containing the metal chelator diethylenetriaminepentaacetic acid (DTPA, 50 μM). The rate of superoxide formation was assessed by ferricytochrome c (cyt c) (60 μM) reduction (550 nm, ε=21,000 M^−1 cm^−1), as previously described (Wasserman et al., Biochim. Biophys. Acta, 623: 457-60 (1980)). Different drug doses (5-100 μM) were used to scavenge superoxide by the modified nitroxide-NSAIDs.
For data set [5] the following is noted: Krishna et al. 1992, cited from earlier work; for oxidation potential Eox: vs. NHE.
For data set [6] the following is noted: previous reports at pH 7.4; cited from earlier work.
The conditions of data set [7]: Hahn et al. 1992; cited from earlier work.

Molecules are shown by their SMILES. pIC50: −log10 of the molar value. Where two headings read alike, the source gives them in different places.

Results on six compounds are retold here after US9012647B2, “Nitroxide modified non-steroidal anti-inflammatory compounds and uses thereof in the treatment and prevention of diseases or disorders” (The United States of America, as Represented by the …, priority 2011, dated 2015).

Experimental for PGE2 production: PGE2 was measured by enzyme enzyme-linked immunosorbent assay (ELISA) (Cayman Chemical, Ann Arbor, Mich.). […] A549 cells in 24 well plates were treated with the compound for 30 min., then arachidonic acid (20 μg ml^−1) was added at 37° C. for 5 min. The samples were frozen at −80° C. until assayed for PGE2. A 100 μl sample was added to EIA buffer (900 μl). Diluted sample (25 μl) was then added to a 96 well plate. The samples were incubated overnight at 4° C. The plate was then washed 5 times (200 μA) and Edman's reagent was added. The absorbance at 450 nm was determined in an ELISA reader. […] Percents were obtained using the formula: %: sample pg/ml/control pg/ml×100.

Consider `CC(=O)Oc1ccccc1C(=O)O` [ASA, acetyl salicylic acid], for which the activity at 10 µg/mL with PGE2 production (dose 10 μg ml^−1) came out at 107%; in the data set on LTB4 formation (dose 10 μg ml^−1), 64%. Besides, the results for the activity at 100 µg/mL in the data set with PGE2 production (dose 100 μg ml^−1) and in the data set with LTB4 formation (dose 100 μg ml^−1) were 23% and 62%, respectively. Also, the figures for the PGE-2 result in the data set on PGE2 production (dose 10 μg ml^−1) and with PGE2 production (dose 100 μg ml^−1) were “(45 ± 7) pg ml^−1” and “(10 ± 2) pg ml^−1”, respectively. In addition, the LTB4 result with LTB4 formation (dose 10 μg ml^−1) is “(64 ± 13) pg ml^−1”; with LTB4 formation (dose 100 μg ml^−1) it was “(62 ± 5) pg ml^−1”. For the same compound, the “inhibition of LTB4 formation” value with LTB4 formation was “no inhibition was observed”. Besides, in data set [1], the MTD – broadly, the highest dose tested that stayed within the study's limit of toxicity – at 24 h worked out at 100 mg/kg.
As for `COc1ccc2c(c1)c(CC(=O)O)c(C)n2C(=O)c1ccc(Cl)cc1` [IND, indomethacin], the activity at 10 µg/mL was 50% with PGE2 production (dose 10 μg ml^−1) and 100% in the data set with LTB4 formation (dose 10 μg ml^−1). The activity at 100 µg/mL worked out at 12% with PGE2 production (dose 100 μg ml^−1) and 82% in the data set on LTB4 formation (dose 100 μg ml^−1). The PGE-2 entry is “(21 ± 3) pg ml^−1” in the data set on PGE2 production (dose 10 μg ml^−1) and “(5 ± 1) pg ml^−1” with PGE2 production (dose 100 μg ml^−1). Besides, the LTB4 result in the data set on LTB4 formation (dose 10 μg ml^−1) is reported as “(100 ± 10) pg ml^−1”; in the data set on LTB4 formation (dose 100 μg ml^−1) it was “(82 ± 9) pg ml^−1”. For the same compound, the “inhibition of LTB4 formation” value in the data set with LTB4 formation is recorded as “no inhibition was observed”. In [1], this compound returned an MTD at 24 h of 5 mg/kg. The “Anti-inflammatory ED50” value in [2] is 4.2 mg/kg.
Regarding `CC1(C)CCCC(C)(C)N1[O]` [TEMPO, 2,2,6,6-Tetramethyl-1-piperidinyloxy], in data set [3] (in acetonitrile, same conditions, vs. NHE), the “oxidation potential Eox” value stood at 1.0 V. Besides, the pIC50 (in general, the negative decadic logarithm of the IC50, by convention in mol/L) in data set [4] was roughly 4.30. For the same compound, in the data set with PGE2 production (dose 10 μg ml^−1), the “PGE-2 % of control” value was 133% and the PGE-2 result was “(56 ± 10) pg ml^−1”. Besides, in the data set with PGE2 production (dose 100 μg ml^−1), the “PGE-2 % of control” value came to 123% and the PGE-2 result is “(52 ± 8) pg ml^−1”. Besides, in the data set on LTB4 formation (dose 10 μg ml^−1), the “LTB4 % of control” value was 100% and the LTB4 result is “(100 ± 2) pg ml^−1”. For the same compound, in the data set on LTB4 formation (dose 100 μg ml^−1), the “LTB4 % of control” value came out at 100% and the LTB4 result was “(100 ± 1) pg ml^−1”. The “inhibition of LTB4 formation” value in the data set with LTB4 formation is given as “no inhibition was observed”. For the same compound, the “Maximum Tolerated Dose (MTD)” value in data set [1] worked out at 140 mg/kg. Moreover, in [5], the E1/2 is listed as 197 mV and the “oxidation potential Eox” value was 0.622 V. In addition, the “rate constant with superoxide” value in [6] was 120000 M⁻¹ s⁻¹.
Take `CC1(C)CC(O)CC(C)(C)N1[O]` [TEMPOL]: the “oxidation potential Eox” value in data set [5] is 0.810 V. Besides, in data set [6], the “rate constant with superoxide” value is 65000 M⁻¹ s⁻¹. For the same compound, the “tolerance (maximum tolerated dose)” value in data set [7] is 275 mg/kg.
Regarding `CC(=O)Oc1ccccc1C(=O)OC1CC(C)(C)N([O])C(C)(C)C1` [compound (1), TEMPO-aspirin], the “reversibility of cyclic voltammograph” value in data set [3] is “reversible”. Further, the “oxidation potential Eox” value in data set [3] (in PBS, versus Ag/AgCl) came out at 0.72 V; in data set [3] (in PBS, vs NHE), 0.83 V.
On to `COc1ccc2c(c1)c(CC(=O)OC1CC(C)(C)N([O])C(C)(C)C1)c(C)n2C(=O)c1ccc(Cl)cc1` [compound (2), TEMPO-indomethacin], for which the “reversibility of cyclic voltammograph” value in data set [3] is “reversible”. For the same compound, the “oxidation potential Eox” value in data set [3] (in acetonitrile (100 mM tetrabutylammonium chloride), versus Ag/AgCl) is recorded as 1.312 V.
